In patent publication US20120136050A1, “USE OF A MELATONIN AGONIST FOR THE TREATMENT OF SLEEP DISORDERS INCLUDING PRIMARY INSOMNIA” (VANDA PHARMACEUTICALS INC., priority 2009, published 2012):

Tested on: healthy volunteers, 5 hour advance in bedtime
Assay: Example 1: placebo-controlled clinical trial, 5 hour advance in bedtime (DLMO, PSG)
Format: in vivo, human
Procedure: A clinical trial was conducted to assess the safety of Compound A as well as to determine the ability of Compound A to shift the sleep/wake cycle following a 5 hour advance in bedtime. The study was a randomized, double-blind, parallel group, placebo-controlled study. It consisted of a 2-4 week outpatient screening period followed by an 8-day inpatient stay. After acclimating to the sleep lab, bedtime was advanced by 5 hours. The primary objectives of this study were to investigate the exposure-response to Compound A on advancement of circadian release of endogenous melatonin rhythm as measured by dim light melatonin onset (DLMO, a biomarker of the sleep-wake cycle), to investigate the exposure-response to Compound A on mean sleep efficiency parameters as measured by PSG, to investigate the exposure-response to Compound A on objective neurobehavioral performance lapses during scheduled work-time as measured by computerized continuous performance testing, and to assess the safety and tolerability of Compound A. Forty-five healthy volunteers, men and women aged 18-50, were enrolled into this study. Thirty-nine subjects were randomized.
The study was designed to assess the safety and efficacy of four oral doses of Compound A (10 mg, 20 mg, 50 mg and 100 mg) compared to matching placebo on circadian phase shift, sleep parameters during the major sleep episode, and subject alertness. After written informed consent was signed, subjects that met the inclusion/exclusion criteria at screening and baseline were enrolled into the 8-day in-patient portion of the study. All in-patient assessments were conducted in a time-isolation sleep lab in which no time cues were available to subjects. During the first three nights, subjects were given placebo 30 minutes prior to bedtime (11:00 PM) in a single-blind fashion. Baseline assessments for the efficacy parameters were measured during this period. At 5:00 PM on day 3, subjects started a 19 hour pre-constant posture (CP) segment during which time the subjects remained seated in a semi-recumbent position and blood samples were collected approximately every hour from 7:00 AM to 12:00 PM. The purpose of the pre-CP segment is to provide a measure of each subject's circadian phase before the start of the night shift segment. On day 4, subjects were randomized to once daily treatment in one of the five treatment groups. In addition, subject sleep-wake routines were advanced 5 hours, such that subjects were required to sleep from approximately 6:00 PM-2:00 AM. Treatment was administered and the time shift was maintained for 3 days. Efficacy parameters were collected during this time. To measure circadian phase at the end of the study, a 24-hour post-CP was conducted immediately after the treatment segment on day 7. Over the course of the study, approximately 500 mL of blood was drawn from each subject. Safety was assessed throughout the study, at the end of study (EOS) visit on day 8, and at the Follow-up visit. The target number of subjects for enrollment was 40 but 45 were actually enrolled.
To assess circadian sleep-wake cycles in the study, plasma melatonin levels were assessed. The onset of melatonin production, or dim light melatonin onset (DLMO), is associated with onset of sleep. DLMO is considered a standard marker used frequently to assess circadian phase. To assess the effects of Compound A on the sleep-wake cycles, DLMO was monitored in subjects before and after treatment. For this study, DLMO was defined as the time when melatonin production reaches 25% of the nightly peak (MEL25% up) of the fitted melatonin phase curve.
Because light has a significant confounding effect on melatonin release, light levels in the sleep laboratory were carefully regulated. […]

In the case of `CCC(=O)NC[C@@H]1C[C@H]1c1cccc2c1CCO2` [Compound A, N-[[(1R,2R)-2-(2,3-dihydro-1-benzofuran-4-yl)cycloproply]methyl]propanamide], the “Change in DLMO25%,LOQ5 between Night 4 and Night 3” value (10 mg, N = 8) is reported as 0.18 h, the “Change in WASO (fraction of time awake from persistent sleep to lights on) between Night 4 and Night 2” value (10 mg, N = 8) is reported as 8.37 % points and the “Change in WASO between Night 4 and Night 2” value (10 mg, N = 8) is reported as 40.56 min. The “Mean Change in Sleep Efficiency between Night 4 and Night 2, Full Night” value (from here on “Mean Change … Full Night”) (10 mg, N = 8) was −7.77 % points, the “Change in Latency to Persistent Sleep between Night 4 and Night 2” value (shortened to “Change in Latency”) (10 mg, N = 8, mean ± SD, p 0.0034 vs placebo) was -8.25 ± 16.34 min and the “Mean Change in Sleep Efficiency between Night 4 and Night 2, 2nd Third of the Night” value (from here on “Mean Change … of the Night”) (10 mg, N = 8, mean ± SD, p 0.0303 vs placebo) was −12.64 ± 13.83 % points. For the same compound, the “Change in DLMO25%,LOQ5 between Night 4 and Night 3” value (20 mg, N = 7) was -1.14 h, the “Change in Latency” value (20 mg, N = 8) was 5.00 min and the “Change in WASO (fraction of time awake from persistent sleep to lights on) between Night 4 and Night 2” value (20 mg, N = 8) was 6.91 % points. For the same compound, the “Change in WASO between Night 4 and Night 2” value (20 mg, N = 8) was 31.19 min, the “Mean Change … Full Night” value (20 mg, N = 8) was −6.68 % points and the “Mean Change … of the Night” value (20 mg, N = 8, mean ± SD, p 0.0048 vs placebo) was −5.11 ± 12.78 % points. For the same compound, the “Change in DLMO25%,LOQ5 between Night 4 and Night 3” value (50 mg, N = 4) was -0.50 h, the “Change in WASO (fraction of time awake from persistent sleep to lights on) between Night 4 and Night 2” value (50 mg, N = 7) was 6.61 % points and the “Change in WASO between Night 4 and Night 2” value (50 mg, N = 7) was 31.21 min. The “Mean Change … of the Night” value (50 mg, N = 7, mean ± SD, p 0.0028 vs placebo) was −2.10 ± 4.14 % points, the “Change in Latency” value (50 mg, N = 7, mean ± SD, p 0.0193 vs placebo) was -3.71 ± 10.97 min and the “Mean Change … Full Night” value (50 mg, N = 7, mean ± SD, p 0.0487 vs placebo) was −5.87 ± 9.89 % points. The “Change in DLMO25%,LOQ5 between Night 4 and Night 3” value (100 mg, N = 5, mean ± SD, p 0.0276 vs placebo) was -2.74 ± 1.95 h, the “Change in Latency” value (100 mg, N = 6, mean ± SD, p 0.0214 vs placebo) was -4.17 ± 6.93 min and the “Mean Change … of the Night” value (100 mg, N = 7, mean ± SD, p 0.0030 vs placebo) was −2.30 ± 5.72 % points. For the same compound, the “Mean Change … Full Night” value (100 mg, N = 7, mean ± SD, p 0.0141 vs placebo) was −2.02 ± 4.94 % points, the “Change in WASO (fraction of time awake from persistent sleep to lights on) between Night 4 and Night 2” value (100 mg, N = 7, mean ± SD, p 0.0391 vs placebo) was 1.85 ± 4.29 % points and the “Change in WASO between Night 4 and Night 2” value (100 mg, N = 7, mean ± SD, p 0.0452 vs placebo) was 8.50 ± 20.39 min. For the same compound, the “number of episodes of REM during the final third of the night” value (Night 4, after phase advance) was “dose-related increase”, the “percentage of time in each sleep stage” value (between Night 4 and Night 2) was “did not change” and the tolerability (doses of 10, 20, 50, and 100 mg, conclusion from Examples 1 and 2) was “well-tolerated”. The “lowest effective dose for DLMO shift” value (first dose with statistically significant p-value in ANOVA with contrasts) was 100 mg.
